Test results from the NIST ThermoML archive (doi:10.1021/je700260f).
Numbers after ± are expanded uncertainties.

Conditions: Liquid, Vibrating tube method

FC(C(F)(F)F)C(F)(F)F [1,1,1,2,3,3,3-heptafluoropropane]
Conditions	mass density [kg/m3]
293.15 K, 27338 kPa	1533.2 ± 1.7
293.15 K, 27374 kPa	1533.1 ± 1.7
293.15 K, 27410 kPa	1533.2 ± 1.7
293.15 K, 27435 kPa	1533.3 ± 1.7
293.15 K, 27481 kPa	1533.5 ± 1.7
293.15 K, 27522 kPa	1533.7 ± 1.7
293.15 K, 27553 kPa	1533.7 ± 1.7
293.15 K, 27589 kPa	1533.9 ± 1.7
293.15 K, 27619 kPa	1533.9 ± 1.7
293.15 K, 27655 kPa	1534 ± 1.7
293.15 K, 27692 kPa	1534.2 ± 1.7
293.15 K, 27728 kPa	1534.3 ± 1.7
293.15 K, 27759 kPa	1534.5 ± 1.7
293.15 K, 27800 kPa	1534.5 ± 1.7
293.15 K, 27841 kPa	1534.6 ± 1.7
293.15 K, 27871 kPa	1534.8 ± 1.7
293.15 K, 27912 kPa	1534.9 ± 1.7
293.15 K, 27953 kPa	1534.9 ± 1.7
293.15 K, 27984 kPa	1535.1 ± 1.7
293.15 K, 28026 kPa	1535.1 ± 1.7
293.15 K, 28067 kPa	1535.5 ± 1.7
293.15 K, 28097 kPa	1535.4 ± 1.7
293.15 K, 28144 kPa	1535.6 ± 1.7
293.15 K, 28185 kPa	1535.7 ± 1.7
293.15 K, 28216 kPa	1535.9 ± 1.7
293.15 K, 28258 kPa	1536 ± 1.7
293.15 K, 28300 kPa	1536 ± 1.7
293.15 K, 28327 kPa	1536.1 ± 1.7
293.15 K, 28369 kPa	1536.4 ± 1.7
293.15 K, 28411 kPa	1536.5 ± 1.7
293.15 K, 28442 kPa	1536.7 ± 1.7
293.15 K, 28484 kPa	1536.7 ± 1.7
293.15 K, 28520 kPa	1536.8 ± 1.7
293.15 K, 28556 kPa	1536.8 ± 1.7
293.15 K, 28588 kPa	1537.1 ± 1.7
293.15 K, 28619 kPa	1537.1 ± 1.7
293.15 K, 28667 kPa	1537.3 ± 1.7
293.15 K, 28709 kPa	1537.3 ± 1.7
293.15 K, 28735 kPa	1537.5 ± 1.7
293.15 K, 28783 kPa	1537.7 ± 1.7
293.15 K, 28823 kPa	1537.8 ± 1.7
293.15 K, 28855 kPa	1537.9 ± 1.7
293.15 K, 28908 kPa	1538.1 ± 1.7
293.15 K, 28956 kPa	1538.2 ± 1.7
293.15 K, 28983 kPa	1538.2 ± 1.7
293.15 K, 29030 kPa	1538.3 ± 1.7
293.15 K, 29072 kPa	1538.5 ± 1.7
293.15 K, 29104 kPa	1538.5 ± 1.7
293.15 K, 29147 kPa	1538.8 ± 1.7
293.15 K, 29179 kPa	1538.8 ± 1.7
293.15 K, 29229 kPa	1539.1 ± 1.7
293.15 K, 29256 kPa	1539.1 ± 1.7
293.15 K, 29289 kPa	1539.1 ± 1.7
293.15 K, 29337 kPa	1539.3 ± 1.7
293.15 K, 29385 kPa	1539.4 ± 1.7
293.15 K, 29417 kPa	1539.6 ± 1.7
293.15 K, 29460 kPa	1539.7 ± 1.7
293.15 K, 29497 kPa	1539.7 ± 1.7
293.15 K, 29528 kPa	1540 ± 1.7
293.15 K, 29566 kPa	1540 ± 1.7
293.15 K, 29603 kPa	1540.2 ± 1.7
293.15 K, 29637 kPa	1540.3 ± 1.7
293.15 K, 29675 kPa	1540.4 ± 1.7
293.15 K, 29718 kPa	1540.6 ± 1.7
293.15 K, 29751 kPa	1540.4 ± 1.7
293.15 K, 29782 kPa	1540.6 ± 1.7
293.15 K, 29810 kPa	1540.8 ± 1.7
293.15 K, 29843 kPa	1540.9 ± 1.7
293.15 K, 29870 kPa	1540.9 ± 1.7
293.15 K, 29903 kPa	1541.1 ± 1.7
293.15 K, 29936 kPa	1541.1 ± 1.7
293.15 K, 29969 kPa	1541.3 ± 1.7
293.15 K, 29997 kPa	1541.2 ± 1.7
293.15 K, 30026 kPa	1541.4 ± 1.7
293.15 K, 30054 kPa	1541.5 ± 1.7
293.15 K, 30083 kPa	1541.6 ± 1.7
293.15 K, 30120 kPa	1541.8 ± 1.7
293.15 K, 30153 kPa	1541.8 ± 1.7
293.15 K, 30181 kPa	1541.9 ± 1.7
293.15 K, 30215 kPa	1542 ± 1.7
293.15 K, 30248 kPa	1542.1 ± 1.7
293.15 K, 30287 kPa	1542.3 ± 1.7
293.15 K, 30316 kPa	1542.4 ± 1.7
293.15 K, 30350 kPa	1542.5 ± 1.7
293.15 K, 30389 kPa	1542.5 ± 1.7
293.15 K, 30423 kPa	1542.7 ± 1.7
293.15 K, 30456 kPa	1542.8 ± 1.7
293.15 K, 30493 kPa	1542.8 ± 1.7
293.15 K, 30522 kPa	1542.9 ± 1.7
293.15 K, 30560 kPa	1543.2 ± 1.7
293.15 K, 30598 kPa	1543.1 ± 1.7
293.15 K, 30626 kPa	1543.2 ± 1.7
293.15 K, 30669 kPa	1543.4 ± 1.7
293.15 K, 30713 kPa	1543.5 ± 1.7
293.15 K, 30742 kPa	1543.5 ± 1.7
293.15 K, 30776 kPa	1543.6 ± 1.7
293.15 K, 30815 kPa	1543.8 ± 1.7
293.15 K, 30853 kPa	1543.9 ± 1.7
293.15 K, 30887 kPa	1543.9 ± 1.7
293.15 K, 30920 kPa	1544.1 ± 1.7
293.15 K, 30958 kPa	1544.3 ± 1.7
293.15 K, 30982 kPa	1544.4 ± 1.7
293.15 K, 31020 kPa	1544.4 ± 1.7
293.15 K, 31063 kPa	1544.6 ± 1.7
293.15 K, 31092 kPa	1544.7 ± 1.7
293.15 K, 31136 kPa	1544.7 ± 1.7
293.15 K, 31164 kPa	1544.7 ± 1.7
293.15 K, 31189 kPa	1544.9 ± 1.8
293.15 K, 31232 kPa	1545.1 ± 1.8
293.15 K, 31270 kPa	1545.2 ± 1.8
293.15 K, 31299 kPa	1545.2 ± 1.8
293.15 K, 31327 kPa	1545.4 ± 1.8
293.15 K, 31356 kPa	1545.3 ± 1.8
293.15 K, 31400 kPa	1545.5 ± 1.8
293.15 K, 31438 kPa	1545.7 ± 1.8
293.15 K, 31468 kPa	1545.7 ± 1.8
293.15 K, 31506 kPa	1545.8 ± 1.8
293.15 K, 31537 kPa	1546 ± 1.8
293.15 K, 31563 kPa	1546.1 ± 1.8
293.15 K, 31593 kPa	1546.1 ± 1.8
293.15 K, 31636 kPa	1546.3 ± 1.8
293.15 K, 31669 kPa	1546.4 ± 1.8
293.15 K, 31698 kPa	1546.4 ± 1.8
293.15 K, 31742 kPa	1546.6 ± 1.8
293.15 K, 31786 kPa	1546.7 ± 1.8
293.15 K, 31815 kPa	1546.8 ± 1.8
293.15 K, 31854 kPa	1546.8 ± 1.8
293.15 K, 31882 kPa	1547 ± 1.8
293.15 K, 31919 kPa	1547.1 ± 1.8
293.15 K, 31954 kPa	1547.1 ± 1.8
293.15 K, 31986 kPa	1547.3 ± 1.8
293.15 K, 32022 kPa	1547.3 ± 1.8
293.15 K, 32055 kPa	1547.6 ± 1.8
293.15 K, 32096 kPa	1547.7 ± 1.8
293.15 K, 32136 kPa	1547.8 ± 1.8
293.15 K, 32163 kPa	1547.7 ± 1.8
293.15 K, 32205 kPa	1548 ± 1.8
293.15 K, 32245 kPa	1548.1 ± 1.8
293.15 K, 32272 kPa	1548.1 ± 1.8
293.15 K, 32309 kPa	1548.2 ± 1.8
293.15 K, 32338 kPa	1548.3 ± 1.8
293.15 K, 32381 kPa	1548.3 ± 1.8
293.15 K, 32418 kPa	1548.5 ± 1.8
293.15 K, 32447 kPa	1548.7 ± 1.8
293.15 K, 32494 kPa	1548.7 ± 1.8
293.15 K, 32531 kPa	1548.9 ± 1.8
293.15 K, 32565 kPa	1548.9 ± 1.8
293.15 K, 32598 kPa	1549 ± 1.8
293.15 K, 32635 kPa	1549.1 ± 1.8
293.15 K, 32668 kPa	1549.3 ± 1.8
293.15 K, 32711 kPa	1549.4 ± 1.8
293.15 K, 33629 kPa	1552.1 ± 1.8
293.15 K, 33659 kPa	1552.1 ± 1.8
293.15 K, 33704 kPa	1552.3 ± 1.8
293.15 K, 33734 kPa	1552.3 ± 1.8
293.15 K, 33769 kPa	1552.5 ± 1.8
293.15 K, 33809 kPa	1552.5 ± 1.8
293.15 K, 33844 kPa	1552.5 ± 1.8
293.15 K, 33879 kPa	1552.6 ± 1.8
293.15 K, 33925 kPa	1552.9 ± 1.8
293.15 K, 33976 kPa	1553.1 ± 1.8
293.15 K, 34008 kPa	1553 ± 1.8
293.15 K, 34053 kPa	1553.2 ± 1.8
293.15 K, 34100 kPa	1553.3 ± 1.8
293.15 K, 34131 kPa	1553.5 ± 1.8
293.15 K, 34173 kPa	1553.5 ± 1.8
293.15 K, 34220 kPa	1553.9 ± 1.8
293.15 K, 34257 kPa	1553.9 ± 1.8
293.15 K, 34293 kPa	1553.8 ± 1.8
293.15 K, 34336 kPa	1554 ± 1.8
293.15 K, 34374 kPa	1554.1 ± 1.8
293.15 K, 34415 kPa	1554.3 ± 1.8
293.15 K, 34442 kPa	1554.3 ± 1.8
293.15 K, 34464 kPa	1554.4 ± 1.8
293.15 K, 34489 kPa	1554.4 ± 1.8
293.15 K, 34511 kPa	1554.7 ± 1.8
293.15 K, 34523 kPa	1554.6 ± 1.8
293.15 K, 34537 kPa	1554.6 ± 1.8
293.15 K, 34546 kPa	1554.6 ± 1.8
303.14 K, 1230 kPa	1372.6 ± 1.5
303.14 K, 7245 kPa	1416.2 ± 1.5
303.14 K, 7273 kPa	1416.3 ± 1.5
303.14 K, 7298 kPa	1416.5 ± 1.5
303.14 K, 7327 kPa	1416.7 ± 1.5
303.14 K, 7356 kPa	1416.8 ± 1.5
303.14 K, 7384 kPa	1417.1 ± 1.5
303.14 K, 7413 kPa	1417.1 ± 1.5
303.14 K, 10852 kPa	1437.1 ± 1.5
303.14 K, 10890 kPa	1437.1 ± 1.5
303.14 K, 10918 kPa	1437.3 ± 1.5
303.14 K, 10989 kPa	1437.6 ± 1.5
303.14 K, 12092 kPa	1443.4 ± 1.6
303.14 K, 12132 kPa	1443.6 ± 1.6
303.14 K, 12163 kPa	1443.8 ± 1.6
303.14 K, 12207 kPa	1443.9 ± 1.6
303.14 K, 12242 kPa	1444.1 ± 1.6
303.14 K, 12284 kPa	1444.2 ± 1.6
303.14 K, 12330 kPa	1444.6 ± 1.6
303.14 K, 12373 kPa	1444.7 ± 1.6
303.14 K, 14583 kPa	1455.6 ± 1.6
303.14 K, 14620 kPa	1455.8 ± 1.6
303.14 K, 14653 kPa	1455.9 ± 1.6
303.14 K, 14687 kPa	1456 ± 1.6
303.14 K, 14726 kPa	1456.4 ± 1.6
303.14 K, 14755 kPa	1456.5 ± 1.6
